Reference: US12024506B2, “Compounds” (Oxford University Innovation Limited, priority 2018, dated 2024)

Assays:
[1] = tested on: H358 cells (ATCC CRL-5807); experiment: Cell viability assay 1 (CellTiter-Glo), H358 cells; type: cell-based; conditions: Homo sapiens, NCI-H358, 48 h, first value of the cell, read-out: Cell Viability H358 (concentration that decreases cell viability by 50%)
Description: (§1) Cells (A549 ATCC CCL-185) are cultured in Dulbecco's Modified Eagle's Medium plus 10% foetal calf serum and 2 mM L-glutamine at 37° C., 5% CO2. Cells are plated onto white clear bottom 96-well plates (5000 cells/well in 200 μl media) and left to adhere overnight at 37° C., 5% CO2. Next day, test compound (1 μl at 200× concentration in 100% DMSO) is added to give final test compound concentration 1× in 0.5% DMSO. After 48 h of incubation at 37° C., 5% CO2, 20 μl CellTiter-Glo reagent (Promega G7572) is added into each well. Plates are incubated at room temperature with shaking for 30 min and then luminescence is read using a PheraStar plate reader. The concentration of compounds that decrease cell viability by 50% is calculated from dose response curves generated using Dotmatics data analysis software.
In the H358 cell assay, cells (ATCC CRL-5807) are cultured in RPMI-1640 medium plus 10% foetal calf serum and 2 mM L-glutamine at 37° C., 5% CO2.

[2] = molecular target: T1, GST-human KRas166 (G12V) GPPNHP (Homo sapiens, UniProt P01116, G12V); experiment: KRas small-molecule screening by SPR (Biacore T200); type: binding; conditions: compound 100 uM, 5% DMSO buffer; immobilised GST-KRas166 (G12V) GPPNHP
T1 construct: made in house; host or cells: E. coli C41(DE3)
Description: For SPR assays pGEX-KRAS(G12V) plasmid was transformed into E. coli C41(DE3). Bacterial cells were cultured at 37° C. to an OD600 of 0.6 and induced with IPTG (final 0.1 mM) at 18° C. over night. The GST fusion proteins were extracted from bacteria pellets after cell disruption in 140 mM NaCl, 2.7 mM KCl, 10 mM NaH2PO4, 1.8 mM KH2PO4, 1 mM EDTA, 2 mM MgCl2 pH 7.4 and purified by glutathione-sepharose column chromatography (GE Healthcare), eluting with 50 mM Tris-HCl pH8.0, 10 mM reduced glutathione, 1 mM DTT, 2 mM MgCl2. The eluted proteins were dialysed against 50 mM Tris-HCl pH8.0, 1 mM DTT, 2 mM MgCl2 and concentrated to 10 mg/ml using a Biomax-30 ULTRAFREE-15 centrifugal filter device (Millipore). Purified KRAS protein was loaded with GPPNHP as described elsewhere (Pacold et al., 2000). Loaded protein was then purified by gel filtration on a HiLoad Superdex-75 HR column (GE Healthcare) in 1×PBS pH7.4, 5 mM MgCl2 and concentrated for storage.
Protocol for KRas Small-Molecule Screening and Affinity Measurements by SPR
To a previously immobilized CM5 chip (GE Healthcare BR-1005-30) with anti GST antibody via amine coupling method, GST in channel 1 and GST-human KRas166 (G12V) GPPNHP in channel 2 were immobilised. GST was immobilised between 2,000 and 5,000 Response units. KRAS166 (G12V) was immobilized between 10,000 to 15,000 Response Units.
In a 96 well plate, compounds were diluted in […], 5 mM MgCl2 and 5% DMSO Buffer to a final concentration of 100 uM. DCAl was used as positive control. Experiment also included a solvent correction curve for 5% DMSO. Screening and evaluation of the protein immobilization and the compounds screening was done accordingly to the BIACORE T200 control and evaluation software.
Calculations for how many response units are required for a 1:1 ratio of compound/protein interaction are shown below. • Protein immobilisation: 10,000 RU; average fragment 300 Da in size. • Rmax=(MWA/MWL)×RL×SM • MWA is the molecular weight of the analyte in Da • MWL is the molecular weight of the ligand in Da • RL is the immobilization level in RU • SM is the molar stoichiometry (assume 1:1) • Rmax=300/47,500×10,000×1 • Rmax=63 RU. Cell Viability Assay protocols Assay 1

[3] = tested on: DLD1 cells (ATCC CCL-221); experiment: Cell viability assay 1 (CellTiter-Glo), DLD1 cells; type: cell-based; conditions: Homo sapiens, DLD-1 cells, 48 h, second value of the cell, read-out: Cell Viability DLD-1 (concentration that decreases cell viability by 50%)
Description: as §1
In the DLD1 cell assay, cells (ATCC CCL-221) are cultured in RPMI-1640 medium plus 10% foetal calf serum and 2 mM L-glutamine at 37° C., 5% CO2.

Row | Compound | IC50 [1] [µM] | SPR Response Units [2] [Response Units] | IC50 [3] [µM]
1 | COc1cccc(-c2cccc3c2OC(CNCc2ccc(OCCN(C)C)cc2)CO3)n1 (stereo not shown) [Example 26, {2-[4-({[8-(6-Methoxy-pyridin-2-yl)-2,3-dihydro-benzo[1,4]dioxin-2-ylmethyl]-amino}-methyl)-phenoxy]-ethyl}-dimethyl-amine] | 95 | 53 | 4
2 | O=C(NCC1COc2cccc(-c3ccc(OCCN4CCOCC4)cn3)c2O1)C1CCOCC1 (stereo not shown) [Example 111, Tetrahydro-pyran-4-carboxylic acid {8-[5-(2-morpholin-4-yl-ethoxy)-pyridin-2-yl]-2,3-dihydro-benzo[1,4]dioxin-2-ylnethyl}-amide] |  | 29 | 
3 | COc1nc(-c2cccc3c2OCCO3)ccc1NC(=O)CC1CCN(C)CC1 [Example 113, N-[6-(2,3-Dihydro-benzo[1,4]dioxin-5-yl)-2-methoxy-pyridin-3-yl]-2-(1-methyl-piperidin-4-yl)-acetamide] |  | 30 | 
4 | COc1cc(N)cc(-c2cccc3c2O[C@H](CNC(=O)c2ccc(CN4CCN(C)CC4)o2)CO3)n1 [Example 114, 5-(4-Methyl-piperazin-1-ylmethyl)-furan-2-carboxylic acid [(R)-8-(4-amino-6-methoxy-pyridin-2-yl)-2,3-dihydro-benzo[1,4]dioxin-2-ylmethyl]-amide] |  | 23 | 
5 | COc1nc(Nc2cccc3c2OC(CNC(=O)c2ccc(CN4CCN(C)CC4)o2)CO3)ccc1NC(=O)[C@H]1CCCN1 (stereo partly drawn) [Example 131, (R)-Pyrrolidine-2-carboxylic acid{2-methoxy-6-[3-({[5-(4-methyl-piperazin-1-ylmethyl)-furan-2-carbonyl]-amino}-methyl)-2,3-dihydro-benzo[1,4]dioxin-5-ylamino]-pyridin-3-yl}-amide] |  | 40 | 
6 | COc1cc(NC(=O)[C@@H]2CC[C@H](N)C2)cc(-c2cccc3c2OCCO3)n1 [Example 133, (1R,3S)-3-Amino-cyclopentanecarboxylic acid[2-(2,3-dihydro-benzo[1,4]dioxin-5-yl)-6-methoxy-pyridin-4-yl]-amide] |  | 96 | 
7 | COc1cc(NC(=O)N[C@@H]2CC[C@H](N)C2)cc(-c2cccc3c2OC(CNC(=O)C2CCOCC2)CO3)n1 (stereo partly shown) [Example 135] |  | 57 | 
8 | COc1cc(NC(=O)N[C@@H]2CC[C@H](N)C2)cc(-c2cccc3c2OCCO3)n1 [Example 136, 1-((1R,3S)-3-Amino-cyclopentyl)-3-[2-(2,3-dihydro-benzo[1,4]dioxin-5-yl)-6-methoxy-pyridin-4-yl]-urea] |  | 75 | 
9 | CN1CCN(Cc2ccc(C(=O)NCC3COc4cccc(-c5cn(C)cn5)c4O3)o2)CC1 (stereo not shown) [Example 137, 5-(4-Methyl-piperazin-1-ylmethyl)-furan-2-carboxylic acid [8-(1-methyl-1H-imidazol-4-yl)-2,3-dihydro-benzo[1,4]dioxin-2-ylmethyl]-amide] |  | 50 | 
10 | CN(C)Cc1cccc(Nc2ccnc(-c3cccc4c3OC(CNC(=O)C3CCOCC3)CO4)c2)c1 (stereo not shown) [Example 140, tetrahydro-pyran-4-carboxylic acid {8-[4-(3-dimethylaminomethyl-phenylamino)-pyridin-2-yl]-2,3-dihydro-benzo[1,4]dioxin-2-ylmethyl}-amide] |  | 32 | 
11 | COc1nc(-c2cccc3c2OC(CNC(=O)C2CCOCC2)CO3)ccc1NC(=O)N[C@H]1CC[C@@H](N)C1 (stereo partly drawn) [Example 141, tetrahydro-pyran-4-carboxylic acid (8-{5-[3-((1S,3R)-3-amino-cyclopentyl)-ureido]-6-methoxy-pyridin-2-yl}-2,3-dihydro-benzo[1,4]dioxin-2-ylmethyl)-amide] |  | 80 | 
12 | N[C@H]1CC[C@@H](NC(=O)Nc2ccnc(-c3cccc4c3OC(CNC(=O)C3CCOCC3)CO4)c2)C1 (stereo partly drawn) [Example 142, tetrahydro-pyran-4-carboxylic acid (8-{4-[3-((1R,3S)-3-amino-cyclopentyl)-ureido]-pyridin-2-yl}-2,3-dihydro-benzo[1,4]dioxin-2-ylmethyl)-amide] |  | 26 | 
13 | COc1nc(-c2cccc3c2OCCO3)ccc1Nc1ccccc1C(=O)NCC1CCNCC1 [Example 150, 2-[6-(2,3-Dihydro-benzo[1,4]dioxin-5-yl)-2-methoxy-pyridin-3-ylamino]-N-piperidin-4-ylmethyl-benzamide] | 12 |  | 2.5
14 | CC(C)(C)OC(=O)NCc1ccc(C(=O)N2CCN(c3cccc4c3OCCO4)CC2)cc1 [Example 169, {4-[4-(2,3-Dihydro-benzo[1,4]dioxin-5-yl)-piperazine-1-carbonyl]-benzyl}-carbamic acid tert-butyl Ester] |  | 25 | 

The next lines start with the values.

Row | IC50 [1] [µM] | SPR Response Units [2] [Response Units] | IC50 [3] [µM] | Compound
15 |  | 36 |  | COc1nc(-c2cccc3c2OCCO3)ccc1Nc1ccccc1C(=O)NCC1CCN(C(=O)OC(C)(C)C)CC1 [Example 152, 4-({2-[6-(2,3-dihydro-benzo[1,4]dioxin-5-yl)-2-methoxy-pyridin-3-ylamino]-benzoylamino}-methyl)-piperidine-1-carboxylic acid tert-butyl ester]
16 |  | 59 |  | c1cc2c(c(-c3ccc(Nc4ccc(CNCC5COCCN5)cc4)nn3)c1)OCCO2 (stereo not shown) [Example 154, [6-(2,3-Dihydro-benzo[1,4]dioxin-5-yl)-pyridazin-3-yl]-(4-{[(morpholin-3-ylmethyl)-amino]-methyl}-phenyl)-amine]
17 |  | 5 |  | CN(C)Cc1cccc(C(=O)N2CCN(c3cccc4c3OCCO4)CC2)c1 [Example 156, [4-(2,3-Dihydro-benzo[1,4]dioxin-5-yl)-piperazin-1-yl]-(3-dimethylaminomethyl-phenyl)-methanone]
18 |  | 16 |  | COc1nc(-c2cccc3c2OCCO3)ccc1Nc1ccc(C(=O)NCc2cc[nH]c(=O)c2)cc1 [Example 161]
19 |  | 23 |  | COc1nc(-c2cccc3c2OCCO3)ccc1Nc1cccc(C(=O)NCc2cccc(F)n2)c1 [Example 168, 3-[6-(2,3-Dihydro-benzo[1,4]dioxin-5-yl)-2-methoxy-pyridin-3-ylamino]-N-(6-fluoro-pyridin-2-ylmethyl)-benzamide]
20 |  | 43 |  | COc1nc(-c2cccc3c2OCCO3)ccc1Nc1ccc(C(=O)NCc2cccc(C)n2)cc1 [Example 174, 4-[6-(2,3-Dihydro-benzo[1,4]dioxin-5-yl)-2-methoxy-pyridin-3-ylamino]-N-(6-methyl-pyridin-2-ylmethyl)-benzamide]
21 | 15.5 |  | 8.4 | COc1nc(-c2cccc3c2OCCO3)ccc1Nc1cccc(C(=O)NCc2cn[nH]c2)c1 [Example 183, 3-[6-(2,3-Dihydro-benzo[1,4]dioxin-5-yl)-2-methoxy-pyridin-3-ylamino]-N-(1H-pyrazol-4-ylmethyl)-benzamide]
